Test results: PMC4767141, “Discovery of Potent, Orally Bioavailable, Small-Molecule Inhibitors of WNT Signaling from a Cell-Based Pathway Screen” (Journal of Medicinal Chemistry, 2015)

Tests used:
[1] = molecular target: T1, FES (Homo sapiens, UniProt P07332); assay: Millipore kinase panel; assay type: biochemical; settings: read-out: % Control
T1 construct: purchased Millipore KinaseProfiler (kinases); Cerep (receptors and ion channels)

[2] = molecular target: T2, NOP (ORL1) (h) (Homo sapiens, UniProt P41146); assay: CEREP binding panel; settings: agonist radioligand, read-out: % Inhibition of Control Specific Binding
T2 construct: purchased Millipore KinaseProfiler (kinases); Cerep (receptors and ion channels)

[3] = molecular target: T3, TEC ACTIVATED (Homo sapiens, UniProt P42680); assay: Millipore kinase panel; assay type: biochemical; settings: read-out: % Control
T3 construct: purchased Millipore KinaseProfiler (kinases); Cerep (receptors and ion channels)

[4] = Caco-2 Papp determination; assay type: in vitro ADME, human; settings: for Papp at 2 h, 1 μM: human, Caco-2, pH 7.4
[5] = molecular target: T4, MLK1 (Homo sapiens, UniProt P80192); assay: Millipore kinase panel; assay type: biochemical; settings: read-out: % Control
T4 construct: purchased Millipore KinaseProfiler (kinases); Cerep (receptors and ion channels)

[6] = molecular target: T5, CHK2 (Homo sapiens, UniProt O96017); assay: Millipore kinase panel; assay type: biochemical; settings: read-out: % Control
T5 construct: purchased Millipore KinaseProfiler (kinases); Cerep (receptors and ion channels)

[7] = molecular target: T6, PIM-1 (Homo sapiens, UniProt P11309); assay: Millipore kinase panel; assay type: biochemical; settings: read-out: % Control
T6 construct: purchased Millipore KinaseProfiler (kinases); Cerep (receptors and ion channels)

[8] = molecular target: T7, δ2 (DOP) (h) (Homo sapiens, UniProt P41143); assay: CEREP binding panel; settings: agonist radioligand
T7 construct: purchased Millipore KinaseProfiler (kinases); Cerep (receptors and ion channels)

[9] = molecular target: T8, H1 (h) (Homo sapiens, UniProt P35367); assay: CEREP binding panel; settings: antagonist radioligand, read-out: % Inhibition of Control Specific Binding
T8 construct: purchased Millipore KinaseProfiler (kinases); Cerep (receptors and ion channels)

[10] = molecular target: T9, SAPK3 (Homo sapiens, UniProt P53778); assay: Millipore kinase panel; assay type: biochemical; settings: read-out: % Control
T9 construct: purchased Millipore KinaseProfiler (kinases); Cerep (receptors and ion channels)

[11] = molecular target: T10, BRK (Homo sapiens, UniProt Q13882); assay: Millipore kinase panel; assay type: biochemical; settings: read-out: % Control
T10 construct: purchased Millipore KinaseProfiler (kinases); Cerep (receptors and ion channels)

[12] = molecular target: T11, IKKBETA (Homo sapiens, UniProt O14920); assay: Millipore kinase panel; assay type: biochemical; settings: read-out: % Control
T11 construct: purchased Millipore KinaseProfiler (kinases); Cerep (receptors and ion channels)

[13] = molecular target: T12, D1 (h) (Homo sapiens, UniProt P21728); assay: CEREP binding panel; settings: antagonist radioligand, read-out: % Inhibition of Control Specific Binding
T12 construct: purchased Millipore KinaseProfiler (kinases); Cerep (receptors and ion channels)

[14] = molecular target: T13, GRK7 (Homo sapiens, UniProt Q8WTQ7); assay: Millipore kinase panel; assay type: biochemical; settings: read-out: % Control
T13 construct: purchased Millipore KinaseProfiler (kinases); Cerep (receptors and ion channels)

[15] = molecular target: T14, 5-HT3 (h) (Homo sapiens, UniProt P46098); assay: CEREP binding panel; settings: antagonist radioligand, read-out: % Inhibition of Control Specific Binding
T14 construct: purchased Millipore KinaseProfiler (kinases); Cerep (receptors and ion channels)

[16] = molecular target: T15, HIPK3 (Homo sapiens, UniProt Q9H422); assay: Millipore kinase panel; assay type: biochemical; settings: read-out: % Control
T15 construct: purchased Millipore KinaseProfiler (kinases); Cerep (receptors and ion channels)

[17] = molecular target: T16, IRR (Homo sapiens, UniProt P14616); assay: Millipore kinase panel; assay type: biochemical; settings: read-out: % Control
T16 construct: purchased Millipore KinaseProfiler (kinases); Cerep (receptors and ion channels)

[18] = molecular target: T17, MAPK1 (Homo sapiens, UniProt P27361); assay: Millipore kinase panel; assay type: biochemical; settings: read-out: % Control
T17 construct: purchased Millipore KinaseProfiler (kinases); Cerep (receptors and ion channels)

[19] = molecular target: T18, 5-HT2A (h) (Homo sapiens, UniProt P28223); assay: CEREP binding panel; settings: antagonist radioligand, read-out: % Inhibition of Control Specific Binding
T18 construct: purchased Millipore KinaseProfiler (kinases); Cerep (receptors and ion channels)

[20] = molecular target: T19, 5-HT5a (h) (Homo sapiens, UniProt P47898); assay: CEREP binding panel; settings: agonist radioligand, read-out: % Inhibition of Control Specific Binding
T19 construct: purchased Millipore KinaseProfiler (kinases); Cerep (receptors and ion channels)

[21] = molecular target: T20, PYK2 (Homo sapiens, UniProt Q14289); assay: Millipore kinase panel; assay type: biochemical; settings: read-out: % Control
T20 construct: purchased Millipore KinaseProfiler (kinases); Cerep (receptors and ion channels)

[22] = molecular target: T21, RET (Homo sapiens, UniProt P07949); assay: Millipore kinase panel; assay type: biochemical; settings: read-out: % Control
T21 construct: purchased Millipore KinaseProfiler (kinases); Cerep (receptors and ion channels)

[23] = molecular target: T22, RSK4 (Homo sapiens, UniProt Q9UK32); assay: Millipore kinase panel; assay type: biochemical; settings: read-out: % Control
T22 construct: purchased Millipore KinaseProfiler (kinases); Cerep (receptors and ion channels)

[24] = molecular target: T23, MTOR (Homo sapiens, UniProt P42345); assay: Millipore kinase panel; assay type: biochemical; settings: read-out: % Control
T23 construct: purchased Millipore KinaseProfiler (kinases); Cerep (receptors and ion channels)

[25] = molecular target: T24, H2 (h) (Homo sapiens, UniProt P25021); assay: CEREP binding panel; settings: antagonist radioligand, read-out: % Inhibition of Control Specific Binding
T24 construct: purchased Millipore KinaseProfiler (kinases); Cerep (receptors and ion channels)

[26] = molecular target: T25, FGFR2 (Homo sapiens, UniProt P21802); assay: Millipore kinase panel; assay type: biochemical; settings: read-out: % Control
T25 construct: purchased Millipore KinaseProfiler (kinases); Cerep (receptors and ion channels)

[27] = molecular target: T26, DYRK2 (Homo sapiens, UniProt Q92630); assay: Millipore kinase panel; assay type: biochemical; settings: read-out: % Control
T26 construct: purchased Millipore KinaseProfiler (kinases); Cerep (receptors and ion channels)

[28] = molecular target: T27, NEK6 (Homo sapiens, UniProt Q9HC98); assay: Millipore kinase panel; assay type: biochemical; settings: read-out: % Control
T27 construct: purchased Millipore KinaseProfiler (kinases); Cerep (receptors and ion channels)

[29] = molecular target: T28, SAPK2B (Homo sapiens, UniProt Q15759); assay: Millipore kinase panel; assay type: biochemical; settings: read-out: % Control
T28 construct: purchased Millipore KinaseProfiler (kinases); Cerep (receptors and ion channels)

[30] = molecular target: T29, TXK (Homo sapiens, UniProt P42681); assay: Millipore kinase panel; assay type: biochemical; settings: read-out: % Control
T29 construct: purchased Millipore KinaseProfiler (kinases); Cerep (receptors and ion channels)

[31] = molecular target: T30, FLT1 (Homo sapiens, UniProt P17948); assay: Millipore kinase panel; assay type: biochemical; settings: read-out: % Control
T30 construct: purchased Millipore KinaseProfiler (kinases); Cerep (receptors and ion channels)

[32] = molecular target: T31, TAK1 (Homo sapiens, UniProt O43318); assay: Millipore kinase panel; assay type: biochemical; settings: read-out: % Control
T31 construct: purchased Millipore KinaseProfiler (kinases); Cerep (receptors and ion channels)

[33] = molecular target: T32, CHK1 (Homo sapiens, UniProt O14757); assay: Millipore kinase panel; assay type: biochemical; settings: read-out: % Control
T32 construct: purchased Millipore KinaseProfiler (kinases); Cerep (receptors and ion channels)

[34] = molecular target: T33, CSK (Homo sapiens, UniProt P41240); assay: Millipore kinase panel; assay type: biochemical; settings: read-out: % Control
T33 construct: purchased Millipore KinaseProfiler (kinases); Cerep (receptors and ion channels)

[35] = test system: KV channel; assay: CEREP binding panel; settings: 10 μM, antagonist radioligand
[36] = molecular target: T34, AT1 (h) (Homo sapiens, UniProt P30556); assay: CEREP binding panel; settings: antagonist radioligand, read-out: % Inhibition of Control Specific Binding
T34 construct: purchased Millipore KinaseProfiler (kinases); Cerep (receptors and ion channels)

[37] = molecular target: T35, RSE (Homo sapiens, UniProt Q06418); assay: Millipore kinase panel; assay type: biochemical; settings: read-out: % Control
T35 construct: purchased Millipore KinaseProfiler (kinases); Cerep (receptors and ion channels)

[38] = molecular target: T36, CLK3 (Homo sapiens, UniProt P49761); assay: Millipore kinase panel; assay type: biochemical; settings: read-out: % Control
T36 construct: purchased Millipore KinaseProfiler (kinases); Cerep (receptors and ion channels)

[39] = test system: α1 (non-selective); assay: CEREP binding panel; settings: 10 μM, antagonist radioligand
[40] = molecular target: T37, PKA (Homo sapiens, UniProt P17612); assay: Millipore kinase panel; assay type: biochemical; settings: read-out: % Control
T37 construct: purchased Millipore KinaseProfiler (kinases); Cerep (receptors and ion channels)

[41] = molecular target: T38, FGFR4 (Homo sapiens, UniProt P22455); assay: Millipore kinase panel; assay type: biochemical; settings: read-out: % Control
T38 construct: purchased Millipore KinaseProfiler (kinases); Cerep (receptors and ion channels)

[42] = molecular target: T39, PKG1BETA (Homo sapiens, UniProt Q13976); assay: Millipore kinase panel; assay type: biochemical
T39 construct: purchased Millipore

[43] = molecular target: T40, CDK3/CYCLINE (Homo sapiens, UniProt Q00526); assay: Millipore kinase panel; assay type: biochemical; settings: read-out: % Control
T40 construct: purchased Millipore KinaseProfiler (kinases); Cerep (receptors and ion channels)

[44] = molecular target: T41, PDK1 (Homo sapiens, UniProt O15530); assay: Millipore kinase panel; assay type: biochemical; settings: read-out: % Control
T41 construct: purchased Millipore KinaseProfiler (kinases); Cerep (receptors and ion channels)

T19 sequence (P47898 whole entry): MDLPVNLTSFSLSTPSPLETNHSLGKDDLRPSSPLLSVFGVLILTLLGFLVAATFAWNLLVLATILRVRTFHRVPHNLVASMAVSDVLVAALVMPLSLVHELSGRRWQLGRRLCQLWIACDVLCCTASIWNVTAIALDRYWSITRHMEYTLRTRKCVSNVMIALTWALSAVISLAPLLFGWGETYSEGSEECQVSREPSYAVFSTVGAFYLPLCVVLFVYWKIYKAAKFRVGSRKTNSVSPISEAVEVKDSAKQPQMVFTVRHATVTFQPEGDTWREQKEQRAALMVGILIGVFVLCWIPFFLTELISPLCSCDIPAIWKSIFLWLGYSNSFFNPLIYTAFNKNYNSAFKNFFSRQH
T30 sequence (P17948 27-1338): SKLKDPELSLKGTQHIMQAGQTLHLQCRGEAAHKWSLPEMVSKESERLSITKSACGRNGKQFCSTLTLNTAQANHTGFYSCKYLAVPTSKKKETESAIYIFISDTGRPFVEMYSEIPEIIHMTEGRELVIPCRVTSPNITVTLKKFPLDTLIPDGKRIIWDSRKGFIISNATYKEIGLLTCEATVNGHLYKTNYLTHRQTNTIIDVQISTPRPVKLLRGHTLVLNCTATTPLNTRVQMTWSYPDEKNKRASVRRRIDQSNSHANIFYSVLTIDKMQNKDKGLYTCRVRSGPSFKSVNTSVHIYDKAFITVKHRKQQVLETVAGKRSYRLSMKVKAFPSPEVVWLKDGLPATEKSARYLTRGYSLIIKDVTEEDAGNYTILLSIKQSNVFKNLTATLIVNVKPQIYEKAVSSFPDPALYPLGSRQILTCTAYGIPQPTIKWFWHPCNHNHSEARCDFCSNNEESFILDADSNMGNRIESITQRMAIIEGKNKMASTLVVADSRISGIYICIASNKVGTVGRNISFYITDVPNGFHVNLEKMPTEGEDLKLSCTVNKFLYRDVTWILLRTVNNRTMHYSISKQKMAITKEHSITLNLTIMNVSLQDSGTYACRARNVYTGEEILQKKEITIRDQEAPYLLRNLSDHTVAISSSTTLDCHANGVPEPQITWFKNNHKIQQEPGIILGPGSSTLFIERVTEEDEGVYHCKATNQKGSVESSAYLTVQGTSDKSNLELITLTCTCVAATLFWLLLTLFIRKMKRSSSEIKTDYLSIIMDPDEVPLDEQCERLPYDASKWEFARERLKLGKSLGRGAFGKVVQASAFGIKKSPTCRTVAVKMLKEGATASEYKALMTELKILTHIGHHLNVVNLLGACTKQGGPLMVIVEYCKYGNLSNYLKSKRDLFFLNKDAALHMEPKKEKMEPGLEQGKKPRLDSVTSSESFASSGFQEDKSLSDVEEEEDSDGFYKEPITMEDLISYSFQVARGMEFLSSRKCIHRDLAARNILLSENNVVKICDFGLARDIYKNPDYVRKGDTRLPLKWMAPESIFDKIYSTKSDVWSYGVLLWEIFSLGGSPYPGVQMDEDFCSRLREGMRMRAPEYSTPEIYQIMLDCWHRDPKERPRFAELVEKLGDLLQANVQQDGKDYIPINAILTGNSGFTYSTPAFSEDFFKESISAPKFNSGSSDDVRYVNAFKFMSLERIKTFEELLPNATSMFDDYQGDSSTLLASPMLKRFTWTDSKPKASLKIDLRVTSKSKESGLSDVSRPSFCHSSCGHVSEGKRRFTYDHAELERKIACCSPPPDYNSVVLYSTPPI
T26 sequence (Q92630 whole entry): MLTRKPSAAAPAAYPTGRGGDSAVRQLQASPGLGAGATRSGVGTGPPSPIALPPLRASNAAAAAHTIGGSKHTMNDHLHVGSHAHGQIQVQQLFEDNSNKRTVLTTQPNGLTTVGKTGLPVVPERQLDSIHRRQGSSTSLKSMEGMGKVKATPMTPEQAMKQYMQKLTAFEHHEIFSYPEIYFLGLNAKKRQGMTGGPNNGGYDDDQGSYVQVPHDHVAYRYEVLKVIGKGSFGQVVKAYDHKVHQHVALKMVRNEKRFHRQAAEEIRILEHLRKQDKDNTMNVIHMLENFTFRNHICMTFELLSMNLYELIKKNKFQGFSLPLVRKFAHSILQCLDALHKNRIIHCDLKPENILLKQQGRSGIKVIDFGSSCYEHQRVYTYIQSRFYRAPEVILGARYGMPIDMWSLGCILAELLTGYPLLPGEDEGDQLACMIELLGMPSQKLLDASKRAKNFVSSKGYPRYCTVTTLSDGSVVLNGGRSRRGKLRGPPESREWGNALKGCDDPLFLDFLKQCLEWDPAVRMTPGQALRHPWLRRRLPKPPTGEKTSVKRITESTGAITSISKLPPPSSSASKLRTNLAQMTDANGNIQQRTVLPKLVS
T9 sequence (P53778 whole entry): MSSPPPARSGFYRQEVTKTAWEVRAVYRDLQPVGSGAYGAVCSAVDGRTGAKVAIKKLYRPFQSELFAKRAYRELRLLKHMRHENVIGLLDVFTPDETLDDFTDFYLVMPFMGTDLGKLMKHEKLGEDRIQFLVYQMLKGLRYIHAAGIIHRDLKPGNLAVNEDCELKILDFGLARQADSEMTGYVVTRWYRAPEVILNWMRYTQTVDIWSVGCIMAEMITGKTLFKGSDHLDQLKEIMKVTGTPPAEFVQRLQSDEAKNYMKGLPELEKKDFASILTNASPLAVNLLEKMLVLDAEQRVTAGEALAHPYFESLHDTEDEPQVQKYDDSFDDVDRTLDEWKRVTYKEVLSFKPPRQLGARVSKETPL
T27 sequence (Q9HC98 whole entry): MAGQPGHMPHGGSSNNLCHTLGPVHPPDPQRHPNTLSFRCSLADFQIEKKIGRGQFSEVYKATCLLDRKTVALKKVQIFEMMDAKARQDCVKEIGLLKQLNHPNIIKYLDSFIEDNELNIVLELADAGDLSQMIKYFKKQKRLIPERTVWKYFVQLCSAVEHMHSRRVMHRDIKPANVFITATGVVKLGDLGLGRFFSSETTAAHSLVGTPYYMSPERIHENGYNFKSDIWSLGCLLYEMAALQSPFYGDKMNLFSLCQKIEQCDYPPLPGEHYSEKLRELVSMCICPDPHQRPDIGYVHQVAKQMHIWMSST
T28 sequence (Q15759 whole entry): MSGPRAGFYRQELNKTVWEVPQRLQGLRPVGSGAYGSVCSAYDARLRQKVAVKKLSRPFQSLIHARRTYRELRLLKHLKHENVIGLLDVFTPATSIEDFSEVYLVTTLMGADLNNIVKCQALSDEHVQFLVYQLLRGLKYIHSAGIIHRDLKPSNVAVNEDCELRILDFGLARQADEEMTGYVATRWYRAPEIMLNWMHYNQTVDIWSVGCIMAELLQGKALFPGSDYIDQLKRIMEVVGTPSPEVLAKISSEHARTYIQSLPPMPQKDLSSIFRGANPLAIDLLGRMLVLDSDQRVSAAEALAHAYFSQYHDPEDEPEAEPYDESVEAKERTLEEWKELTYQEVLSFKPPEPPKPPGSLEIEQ
T40 sequence (Q00526 whole entry): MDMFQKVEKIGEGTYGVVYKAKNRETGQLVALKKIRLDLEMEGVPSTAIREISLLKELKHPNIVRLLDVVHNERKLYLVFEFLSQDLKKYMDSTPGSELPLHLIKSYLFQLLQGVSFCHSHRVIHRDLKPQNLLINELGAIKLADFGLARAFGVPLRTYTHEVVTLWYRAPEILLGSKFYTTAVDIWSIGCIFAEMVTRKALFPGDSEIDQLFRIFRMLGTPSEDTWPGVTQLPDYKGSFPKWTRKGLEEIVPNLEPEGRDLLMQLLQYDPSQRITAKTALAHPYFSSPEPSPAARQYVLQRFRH
T40 sequence (P24864 whole entry partner): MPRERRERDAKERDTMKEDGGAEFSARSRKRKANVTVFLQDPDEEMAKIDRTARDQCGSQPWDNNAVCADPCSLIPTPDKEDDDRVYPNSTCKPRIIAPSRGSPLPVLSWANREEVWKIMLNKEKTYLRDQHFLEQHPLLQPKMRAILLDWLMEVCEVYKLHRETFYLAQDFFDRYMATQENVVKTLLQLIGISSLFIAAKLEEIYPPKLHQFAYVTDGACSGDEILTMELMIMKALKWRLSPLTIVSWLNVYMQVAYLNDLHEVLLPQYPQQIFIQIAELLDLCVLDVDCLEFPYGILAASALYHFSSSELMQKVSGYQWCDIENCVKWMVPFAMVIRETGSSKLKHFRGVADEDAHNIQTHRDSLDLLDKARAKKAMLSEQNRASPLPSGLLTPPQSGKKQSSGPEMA
T2 sequence (P41146 whole entry): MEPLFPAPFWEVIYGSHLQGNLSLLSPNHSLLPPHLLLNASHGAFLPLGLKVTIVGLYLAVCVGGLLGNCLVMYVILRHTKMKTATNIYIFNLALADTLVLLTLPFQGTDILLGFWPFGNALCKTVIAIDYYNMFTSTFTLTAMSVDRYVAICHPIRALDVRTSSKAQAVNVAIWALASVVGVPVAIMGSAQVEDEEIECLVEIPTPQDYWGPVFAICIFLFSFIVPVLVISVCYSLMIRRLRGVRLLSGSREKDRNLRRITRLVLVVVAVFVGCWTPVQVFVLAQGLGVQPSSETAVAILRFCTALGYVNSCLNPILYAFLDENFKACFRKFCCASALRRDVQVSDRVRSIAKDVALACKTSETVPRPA
T18 sequence (P28223 whole entry): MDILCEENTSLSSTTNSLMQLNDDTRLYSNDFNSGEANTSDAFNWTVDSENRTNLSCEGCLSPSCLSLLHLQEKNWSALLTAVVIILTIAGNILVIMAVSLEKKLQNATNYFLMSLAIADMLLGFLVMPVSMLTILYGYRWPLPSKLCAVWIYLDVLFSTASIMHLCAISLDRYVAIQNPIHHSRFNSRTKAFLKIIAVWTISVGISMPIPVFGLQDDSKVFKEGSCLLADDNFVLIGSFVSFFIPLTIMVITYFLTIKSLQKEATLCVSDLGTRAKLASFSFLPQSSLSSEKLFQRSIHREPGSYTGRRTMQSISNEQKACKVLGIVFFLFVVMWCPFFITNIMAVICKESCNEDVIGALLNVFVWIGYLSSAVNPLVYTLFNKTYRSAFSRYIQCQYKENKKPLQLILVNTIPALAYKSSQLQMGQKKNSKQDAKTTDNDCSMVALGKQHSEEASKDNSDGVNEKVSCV

## O=C1NCCC12CCN(c1c(Cl)cncc1-c1ccc(N3CCOCC3)cc1)CC2 [Compound 44, 8-(3-Chloro-5-(4-morpholin-4-ylphenyl)pyridin-4-yl)-2,8-diazaspiro[4.5]decan-1-one]
[1]
  remaining activity at 1 µM: 14%
[2]
  inhibition at 10 µM: 12%
[3]
  remaining activity at 1 µM: 4%
[4]
  Caco-2 efflux (efflux ratio, ER): no efflux
  Papp at 2 h, 1 μM: 37 ×10⁻⁶ cm/s
[5]
  remaining activity at 1 µM: 1%
[6]
  remaining activity at 1 µM: 15%
[7]
  remaining activity at 1 µM: 1%
[8]; read-out: % Inhibition of Control Specific Binding
  inhibition at 10 µM: 12%
[9]
  inhibition at 10 µM: -5%
[10]
  remaining activity at 1 µM: 35%
[11]
  remaining activity at 1 µM: 2%
[12]
  remaining activity at 1 µM: 3%
[13]
  inhibition at 10 µM: 2%
[14]
  remaining activity at 1 µM: -2%
[15]
  inhibition at 10 µM: -3%
[16]
  remaining activity at 1 µM: 7%
[17]
  remaining activity at 1 µM: 1%
[18]
  remaining activity at 1 µM: 10%
[19]
  inhibition at 10 µM: -1%
[20]
  inhibition at 10 µM: 11%
[21]
  remaining activity at 1 µM: -6%
[22]
  remaining activity at 1 µM: 14%
[23]
  remaining activity at 1 µM: 2%
[24]
  remaining activity at 1 µM: 18%
[25]
  inhibition at 10 µM: -16%
[26]
  remaining activity at 1 µM: -6%
[27]
  remaining activity at 1 µM: 9%
[28]
  remaining activity at 1 µM: -4%
[29]
  remaining activity at 1 µM: 4%
[30]
  remaining activity at 1 µM: 4%
[31]
  remaining activity at 1 µM: 10%
[32]
  remaining activity at 1 µM: -3%
[33]
  remaining activity at 1 µM: -7%
[34]
  remaining activity at 1 µM: -1%
[35]
  % Inhibition of Control Specific Binding: 2%
[36]
  inhibition at 10 µM: 2%
[37]
  remaining activity at 1 µM: 7%
[38]
  remaining activity at 1 µM: 0%
[39]
  % Inhibition of Control Specific Binding: -4%
[40]
  remaining activity at 1 µM: 5%
[41]
  remaining activity at 1 µM: 7%
[42]; read-out: % Control
  remaining activity at 1 µM: -4%
[43]
  remaining activity at 1 µM: -7%
[44]
  remaining activity at 1 µM: 3%

## Cn1cc(-c2ccc(-c3cncc(Cl)c3N3CCC4(CCNC4=O)CC3)cc2)cn1 [Compound 74, 8-(3-Chloro-5-(4-(1-methyl-1H-pyrazol-4-yl)phenyl)pyridin-4-yl)-2,8-diazaspiro[4.5]decan-1-one]
[1]
  remaining activity at 1 µM: -14%
[2]
  inhibition at 10 µM: 3%
[3]
  remaining activity at 1 µM: 14%
[4]
  Papp at 2 h, 1 μM: 24 ×10⁻⁶ cm/s
[5]
  remaining activity at 1 µM: -5%
[6]
  remaining activity at 1 µM: 7%
[7]
  remaining activity at 1 µM: -11%
[8]; 10 μM
  % Inhibition of Control Specific Binding: 22%
[9]
  inhibition at 10 µM: 16%
[10]
  remaining activity at 1 µM: 13%
[11]
  remaining activity at 1 µM: 11%
[12]
  remaining activity at 1 µM: 2%
[13]
  inhibition at 10 µM: 7%
[14]
  remaining activity at 1 µM: 7%
[15]
  inhibition at 10 µM: 9%
[16]
  remaining activity at 1 µM: -2%
[17]
  remaining activity at 1 µM: 3%
[18]
  remaining activity at 1 µM: 11%
[19]
  inhibition at 10 µM: 1%
[20]
  inhibition at 10 µM: 1%
[21]
  remaining activity at 1 µM: 5%
[22]
  remaining activity at 1 µM: 1%
[23]
  remaining activity at 1 µM: -17%
[24]
  remaining activity at 1 µM: 7%
[25]
  inhibition at 10 µM: -2%
[26]
  remaining activity at 1 µM: -6%
[27]
  remaining activity at 1 µM: -9%
[28]
  remaining activity at 1 µM: -10%
[29]
  remaining activity at 1 µM: 0%
[30]
  remaining activity at 1 µM: -2%
[31]
  remaining activity at 1 µM: -5%
[32]
  remaining activity at 1 µM: 6%
[33]
  remaining activity at 1 µM: -17%
[34]
  remaining activity at 1 µM: 0%
[35]
  % Inhibition of Control Specific Binding: -13%
[36]
  inhibition at 10 µM: 8%
[37]
  remaining activity at 1 µM: -17%
[38]
  remaining activity at 1 µM: -8%
[39]
  % Inhibition of Control Specific Binding: 8%
[40]
  remaining activity at 1 µM: 24%
[41]
  remaining activity at 1 µM: 0%
[42]; ATP at Km
  IC50: > 10 µM
[43]
  remaining activity at 1 µM: 1%
[44]
  remaining activity at 1 µM: -12%
